Target: T1, SPT (serine palmitoyltransferase) (Sphingomonas paucimobilis, UniProt Q93UV0)
T1 construct: soluble homodimer
Test: HPLC-HRMS of 3-ketodihydrosphingosine; coupled PPi assay
Format: biochemical
Settings: pH 7.5, 37°C

T1 sequence (Q93UV0 whole entry): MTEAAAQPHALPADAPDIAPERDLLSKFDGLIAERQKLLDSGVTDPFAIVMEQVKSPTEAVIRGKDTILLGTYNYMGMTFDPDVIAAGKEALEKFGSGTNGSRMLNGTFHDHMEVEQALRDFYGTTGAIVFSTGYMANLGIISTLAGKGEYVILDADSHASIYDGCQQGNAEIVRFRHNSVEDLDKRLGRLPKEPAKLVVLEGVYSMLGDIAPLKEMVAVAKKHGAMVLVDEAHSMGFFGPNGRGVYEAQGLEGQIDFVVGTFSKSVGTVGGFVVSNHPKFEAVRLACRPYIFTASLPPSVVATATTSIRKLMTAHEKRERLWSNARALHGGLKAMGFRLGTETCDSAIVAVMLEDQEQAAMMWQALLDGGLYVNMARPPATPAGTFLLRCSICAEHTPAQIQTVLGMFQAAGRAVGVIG

| Structure (SMILES) | HPLC-HRMS of 3-ketodihydrosphingosine; coupled PPi assay (5 mM serine, palmitoyl-CoA regenerated by FadD) | HPLC-HRMS of 3-ketodihydrosphingosine; coupled PPi assay (with palmitoyl-CoA regenerated by FadD, serine concentration varied) |
| --- | --- | --- |
| CCCCCCCCCCCCCCCC(=O)SCCNC(=O)CCNC(=O)[C@H](O)C(C)(C)COP(=O)(O)OP(=O)(O)OC[C@H]1O[C@@H](n2cnc3c(N)ncnc32)[C@H](O)[C@@H]1OP(=O)(O)O [palmitoyl-CoA] | we verified the production of 3-ketodihydrosphingosine by our SPT reaction |  |
| N[C@@H](CO)C(=O)O [serine] |  | we verified the production of 3-ketodihydrosphingosine by our SPT reaction |
